Experimental data reported in patent publication US9593305B2, “Differentiation of pluripotent stem cells” (Janssen Biotech, Inc., priority 2008, dated 2017).

Columns and labels:
[1] = test system: H1 human embryonic stem cells; assay: Analogue screening in combination with only GDF-8, SOX17 (Example 21, Tables 18 and 19); type: cell-based; design: Sox17 Expression: % of positive control / Cell Number: % of positive control: tested at 2.5 µM; settings: compound in combination with GDF8; for Cell Number: Average Total Cell Number / Sox17 Expression: Average Total Intensity: four assay plates; for Cell Number: % of positive control / Sox17 Expression: % of positive control: relative to Activin A/Wnt3a of the same plate
Description: Briefly, clusters of H1 human embryonic stem cells were grown on reduced growth factor Matrigel™ (Invitrogen; Cat #356231)-coated tissue culture plastic. Cells were passaged using collagenase (Invitrogen; Cat #17104-019) treatment and gentle scraping, washed to remove residual enzyme, and plated with even dispersal at a ratio of 1:1 (surface area) on reduced growth factor […]™ (BD Biosciences; Cat #356231)-coated 96-well black plates (Packard ViewPlates; PerkinElmer; Cat #6005182) using volumes of 100 μl/well. Cells were allowed to attach and then recover log phase growth over a 1 to 3 day time period, feeding daily with MEF conditioned medium supplemented with 8 ng/ml bFGF (R&D Systems; Cat #233-FB). Plates were maintained at 37° C., 5% CO2 in a humidified box throughout the duration of assay.
Screening was conducted using a library of the analogue compounds. Compounds from this library were made available as 5 mM stocks in 96-well plate format, solubilized in 100% DMSO (Sigma; Cat #D2650) and stored at −80° C. The library compounds were further diluted to an intermediate concentration of 0.2 mM in 50 mM HEPES (Invitrogen; Cat #15630-080), 20% DMSO and stored at 4° C. Test conditions were performed in triplicate, feeding on alternating days over a four-day assay period. Assays were initiated by aspirating culture medium from each well followed by three washes in PBS (Invitrogen; Cat #14190) to remove residual growth factors. On the first day of assay, test volumes of 200 μl per well were added to each well using DMEM:F12 base medium (Invitrogen; Cat #11330-032) supplemented with 0.5% FCS (HyClone; Cat #SH30070.03) and 200 ng/ml GDF-8 (R&D Systems, Cat #788-G8) plus 2.5 μM compound. On the third day of assay, test volumes of 100 μl per well were added to each well using DMEM:F12 base medium supplemented with 2% FCS plus 200 ng/ml GDF-8 (R&D Systems, Cat #788-G8). Positive control samples contained the same base medium supplemented with FCS and 1000 ng/ml recombinant human activin A (PeproTech; Cat #120-14) throughout the four-day assay along with Wnt3a (20 ng/ml) on days 1 and 2. Negative control samples contained DMEM:F12 base medium supplemented with FCS, adding Wnt3a on days 1 and 2 but omitting treatment with activin A.
At the conclusion of four-days of culture, assay plates were washed twice with PBS (Invitrogen; Cat #14190), fixed with 4% paraformaldehyde (Alexis Biochemical; Cat #ALX-350-011) at room temperature for 20 minutes, then washed three times with PBS and permeabilized with 0.5% Triton X-100 (Sigma; Cat #T8760-2) for 20 minutes at room temperature. Cells were washed again three times with PBS and blocked with 4% chicken serum (Invitrogen; Cat #16110082) in PBS for 30 minutes at room temperature. Primary antibody (goat anti-human SOX17; R&D Systems; Cat #AF1924) was diluted 1:100 in 4% chicken serum and added to each well for one hour at room temperature. Alexa Fluor 488 conjugated secondary antibody (chicken anti-goat IgG; Molecular Probes; Cat #AZ1467) was diluted 1:200 in PBS and added to each sample well after washing three times with PBS. To counterstain nuclei, 4 μg/ml Hoechst 33342 (Invitrogen; Cat #H3570) was added for ten minutes at room temperature. Plates were washed once with PBS and left in 100 μl/well PBS for imaging.
Imaging was performed using an IN Cell Analyzer 1000 (GE Healthcare) utilizing the 51008bs dichroic for cells stained with Hoechst 33342 and Alexa Fluor 488. Exposure times were optimized from positive control wells and from untreated negative control wells stained with secondary antibody alone. Images from 15 fields per well were acquired to compensate for any cell loss during the bioassay and subsequent staining procedures. Measurements for total cell number and total SOX17 intensity were obtained from each well using IN Cell Developer Toolbox 1.7 (GE Healthcare) software. […]

[2] = test system: H1 human embryonic stem cells; assay: Analog screening with GDF-8 and growth factor/agonist pool (Example 8, Tables 7 and 8); type: cell-based
Description: Briefly, clusters of H1 human embryonic stem cells were grown on reduced growth factor […]™ (Invitrogen; Cat #356231)-coated tissue culture plastic. Cells were passaged using collagenase (Invitrogen; Cat #17104-019) treatment and gentle scraping, washed to remove residual enzyme, and plated with even dispersal at a ratio of 1:1 (surface area) on reduced growth factor […]™-coated 96-well black plates (Packard ViewPlates; PerkinElmer; Cat #6005182) using volumes of 100 μl/well. Cells were allowed to attach as clusters and then recover log phase growth over a 1 to 3 day period, feeding daily with MEF conditioned medium supplemented with 8 ng/ml bFGF (R&D Systems; Cat #233-FB). Plates were maintained at 37° C., 5% CO2 in a humidified box throughout the duration of assay. Growth factors purchased from R&D Systems were EGF (Cat #236-EG), FGF4 (Cat #235-F4), PDGF-A (Cat #221-AA), PDGF-D (Cat #1159-SB), PDGF-A/B (Cat #222-AB). […] Screening was conducted using a library of compounds that were made available as 5 mM stocks in 96-well plate format, solubilized in 100% DMSO (Sigma; Cat #D2650) and stored at −80° C. The compounds were further diluted to an intermediate concentration of 0.2 mM in 50 mM HEPES (Invitrogen; Cat #15630-080), 20% DMSO and stored at 4° C. Test conditions were performed in single wells, feeding on alternate days over a four-day assay period. Primary screening assays were initiated by aspirating culture medium from each well followed by three washes in PBS (Invitrogen; Cat #14190) to remove residual growth factors and serum. On the first day of assay, test volumes of 200 μl per well were added back containing DMEM:F12 base medium (Invitrogen; Cat #11330-032) supplemented with 0.5% FCS (HyClone; […] Cat #1324-WN) plus 2.5 μM compound. All remaining growth factors were tested at a final assay concentration of 50 ng/ml (EGF, FGF4, PDGF-A, PDGF-A/B, VEGF) with the exception of GDF-8 tested at 25 ng/ml. […] Cat #120-14). […] All remaining growth factors were tested at a final assay concentration of 50 ng/ml (EGF, FGF4, PDGF-A, PDGF-A/B, VEGF) with the exception of GDF-8 tested at 25 ng/ml. […] Cat #120-14). Negative control samples contained DMEM:F12 base medium supplemented with 2% FCS. […] At the conclusion of four-days of culture, assay plates were washed twice with PBS (Invitrogen; Cat #14190), fixed with 4% paraformaldehyde (Alexis Biochemical; Cat #ALX-350-011) at room temperature for 20 minutes, then washed three times with PBS and permeabilized with 0.5% Triton X-100 (Sigma; Cat #T8760-2) for 20 minutes at room temperature. Cells were washed again three times with PBS and blocked with 4% chicken serum (Invitrogen; Cat #16110082) in PBS for 30 minutes at room temperature. Primary antibody (goat anti-human SOX17; R&D Systems; Cat #AF1924) was diluted 1:100 in 4% chicken serum and added to each well for one hour at room temperature. Alexa Fluor 488 conjugated secondary antibody (chicken anti-goat IgG; Molecular Probes; Cat #AZ1467) was diluted 1:200 in PBS and added to each sample well after washing three times with PBS. To counterstain nuclei, 4 μg/ml Hoechst 33342 (Invitrogen; Cat #H3570) was added for ten minutes at room temperature. Plates were washed once with PBS and left in 100 μl/well PBS for imaging. Imaging was performed using an IN Cell Analyzer 1000 (GE Healthcare) utilizing the 51008bs dichroic for cells stained with Hoechst 33342 and Alexa Fluor 488. Exposure times were optimized from positive control wells and from untreated negative control wells stained with secondary antibody alone. Images from 15 fields per well were acquired to compensate for any cell loss during the bioassay and subsequent staining procedures. […] Segmentation for the nuclei was determined based on gray-scale levels (baseline range 100-300) and nuclear size. Averages and standard deviations were calculated for each replicate data set. […]

[3] = Plate 1, compound + EGF, FGF, PDGF-A, VEGF, PDGF-D, muscimol, GDF8
[4] = Plate 1, compound + EGF, FGF, PDGF-A, VEGF, PDGF-D, muscimol, GDF8, positive control Activin A/Wnt3a
[5] = Table 8: hits with greater than 25% activity of the positive control, with GDF-8 and growth factors/agonists

`COc1ccc(-c2ccnc(Nc3cc(Br)cc(CO)c3)n2)cc1CN(C)CCCNC(=O)OC(C)(C)C` [Compound 5, 1,1-Dimethylethyl {3-[{[5-(2-{[3-bromo-5-(hydroxymethyl)phenyl]amino}pyrimidin-4-yl)-2-(methyloxy)phenyl]methyl}(methyl)amino]propyl}carbamate] was tested. Which “Cell Number: Average Total Cell Number” value [1] did it give?
The value was 3137.

What about the “Sox17 Expression: Average Total Intensity” value [1] of the same compound?
The value was 1.30E+07.

And the “Cell Number: % of positive control” value [1]?
The value was 20.5%.

What about the “Sox17 Expression: % of positive control” value [1] of the same compound?
Its value is 3.9%.

What does the source list for `O=C1NCCc2cccc(c2)Nc2ncnc(n2)-c2cccc(c2)CCCN2CCC1CC2` [Compound 31, 1,11,13,15,23,31-Hexaazapentacyclo[23.2.2.1˜5,9˜0.1˜10,14˜0.1˜16,20˜]dotriaconta-5(32), 6,8,10(31), 11,13,16(30), 17,19-nonaen-24-one]?
Cell Number, Average Total Cell Number [2, 3]: 6957; Sox17 Expression, Average Total Intensity [2, 3]: 6.59E+07; Cell Number, % of positive control [2, 4]: 51.9 % of positive control; Sox17 Expression, % of positive control [2, 4]: 26.3 % of positive control; Cell Number, % of positive control [2, 5]: 51.9 % of positive control; Sox17 Expression, % of positive control [2, 5]: 26.3 % of positive control; Sox17 Expression, Average Total Intensity [2, 5]: 6.59E+07; Cell Number: Average Total Cell Number [1]: 3619; Sox17 Expression: Average Total Intensity [1]: 1.36E+07; Cell Number: % of positive control [1]: 24.1%; Sox17 Expression: % of positive control [1]: 3.9%

Which results are given for `CN1CCC(C(=O)NCc2sc(Nc3cccc(C(F)(F)F)c3)nc2-c2cccnc2)CC1` [Compound 50, 1-Methyl-N-[(4-pyridin-3-yl-2-{[3-(trifluoromethyl)phenyl]amino}-1,3-thiazol-5-yl)methyl]piperidine-4-carboxamide]?
Cell Number: Average Total Cell Number [1]: 2666; Sox17 Expression: Average Total Intensity [1]: 1.48E+07; Cell Number: % of positive control [1]: 19.1%; Sox17 Expression: % of positive control [1]: 4.8%

Which “Cell Number: Average Total Cell Number” value [1] does the source give for `CC(C)(C)OC(=O)NCCCCc1cc(-c2ncnc(Nc3cccc(CO)c3)n2)ccn1` [Compound 4, 1,1-Dimethylethyl {4-[4-(4-{[3-(hydroxymethyl)phenyl]amino}-1,3,5-triazin-2-yl)pyridin-2-yl]butyl}carbamate] here?
The value was 3163.

And the “Sox17 Expression: Average Total Intensity” value [1]?
The value was 1.58E+07.

And the “Cell Number: % of positive control” value [1]?
Its value is 20.7%.

What about the “Sox17 Expression: % of positive control” value [1] of the same compound?
The value was 4.7%.

For `OCCc1cccc(Nc2ncnc(-c3cccnc3)n2)c1` [Compound 2, 2-{3-[(4-Pyridin-3-yl-1,3,5-triazin-2-yl)amino]phenyl}ethanol], which “Cell Number: Average Total Cell Number” value [1] is on record?
The value was 4538.

What about the “Sox17 Expression: Average Total Intensity” value [1] of the same compound?
The value was 2.95E+07.

What about the “Cell Number: % of positive control” value [1] of the same compound?
Its value is 30.2%.

What about the “Sox17 Expression: % of positive control” value [1] of the same compound?
The value was 8.6%.

How did the “Cell Number: Average Total Cell Number” value [1] turn out when `CC(C)(C)OC(=O)NCCc1ccc(Nc2nnc(-c3cccc(CCCO)c3)[nH]2)cc1` [Compound 51, 1,1-Dimethylethyl {2-[4-({5-[3-(3-hydroxypropyl)phenyl]-4H-1,2,4-triazol-3-yl}amino)phenyl]ethyl}carbamate] was run?
Its value is 4289.

And the “Sox17 Expression: Average Total Intensity” value [1]?
The value was 1.70E+07.

What about the “Cell Number: % of positive control” value [1] of the same compound?
Its value is 28.6%.

What about the “Sox17 Expression: % of positive control” value [1] of the same compound?
The value was 4.9%.

With `COc1ccc(CCCO)cc1-c1cnc(Nc2cccc(CNC(=O)OC(C)(C)C)c2)o1` [Compound 52, 1,1-Dimethylethyl {[3-({5-[5-(3-hydroxypropyl)-2-(methyloxy)phenyl]-1,3-oxazol-2-yl}amino)phenyl]methyl}carbamate] as the compound, how does the “Cell Number: Average Total Cell Number” value [1] read?
The value was 4932.

What about the “Sox17 Expression: Average Total Intensity” value [1] of the same compound?
Its value is 1.99E+07.

What about the “Cell Number: % of positive control” value [1] of the same compound?
The value was 32.9%.

And the “Sox17 Expression: % of positive control” value [1]?
Its value is 5.8%.

How did the “Cell Number: Average Total Cell Number” value [1] turn out when `CN1CCN(S(=O)(=O)c2ccc(Nc3cncc(-c4ccc(CN5CCC(O)CC5)s4)n3)cc2)CC1` [Compound 53, 1-({5-[6-({4-[(4-Methylpiperazin-1-yl)sulfonyl]phenyl}amino)pyrazin-2-yl]thiophen-2-yl}methyl)piperidin-4-ol] was run?
The value was 2783.

What about the “Sox17 Expression: Average Total Intensity” value [1] of the same compound?
The value was 6.36E+06.

What about the “Cell Number: % of positive control” value [1] of the same compound?
Its value is 18.2%.

And the “Sox17 Expression: % of positive control” value [1]?
Its value is 1.9%.
